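These data come from cells grown in 96-well plates and exposed to compound for 48 hours at five concentrations. GI50: concentration for 50% inhibition of growth. TGI denotes the concentration required for complete inhibition of growth.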

Assay in all cases: inhibition of tumour cell growth, NCI panel, 48 h
Assay [1] concerns OVCAR-5 ovarian.
Assay [2] deals with KM12 colon.
Assay [3] has as its system KM20L2 colon.
The test system of assay [4] is SF-539 CNS.
The test system of assay [5] is SN12C renal.
For assay [6], the system named is SNB-19 CNS.
Assay [7] relates to SF-295 CNS.
In assay [8] the test system is RPMI-8226 leukemia.
The test system of assay [9] is HS 578T breast.

Turning to `CC1=NC(C)=C(/C(C)=N/NC(=O)c2ccccc2O)C(C)/C1=C(/C)NNC(=O)c1ccccc1O` (stereo not drawn), the TGI in [1] is 92.1 µM; in assay [2] it was > 100 µM; in assay [3], > 100 µM; in assay [4] it was 76.2 µM; in assay [5] it was > 100 µM; in assay [6] it was > 100 µM.
`Nc1ccc(C(=O)CC2(O)C(=O)Nc3ccccc32)cc1` (stereo not drawn): the TGI in assay [1], in assay [7], in assay [8], in assay [3], in assay [4] and in assay [5] was > 100 µM throughout. In addition, the TGI in assay [6] was > 100 µM.
For `O=C1NN(C(=O)c2ccccc2)C(c2ccc(Cl)c(Cl)c2)=C/C1=C\c1ccccc1[N+](=O)[O-]`, the GI50 is 1.96 µM in [1]; 1.44 µM in assay [7]; 2.46 µM in assay [9]; 1.77 µM in assay [8]; 2.34 µM in assay [2]; 2.47 µM in assay [4]. Moreover, the GI50 in [5] is 2.4 µM; in assay [6] it was 0.339 µM. Also, the TGI in assay [1] is > 6.75 µM; in assay [7], 4.16 µM; in [9] it was > 6.75 µM; in [8], > 6.75 µM; in assay [2] it was > 6.75 µM; in [4] it was > 6.75 µM. The TGI in assay [5] and in assay [6] was > 6.75 µM each time.
Turning to `COc1cc(/C=C2\C[C@H]3[C@@H]4CC=C5C[C@@H](O)CC[C@]5(C)[C@H]4CC[C@]3(C)[C@H]2O)ccc1OCCN1CCCCC1`, the GI50 is 1.03 µM in assay [1]; 0.906 µM in assay [7]; 1.44 µM in assay [9]; 0.776 µM in [8]; 0.912 µM in [2]; 1.1 µM in [4]. Moreover, the GI50 in assay [5] was 0.813 µM; in assay [6], 2.17 µM. Besides, the TGI in assay [1] is 2.6 µM; in assay [7], 1.75 µM; in assay [9] it was > 10.7 µM; in [8] it was 1.98 µM; in assay [2], 2.12 µM; in [4], 2.1 µM. Besides, the results for the TGI in assay [5] and in assay [6] were 1.75 µM and > 50 µM, respectively.
With `CCCCNC(=O)Oc1ccc(/C(=C(\C)c2ccc(OC)cc2)c2ccc(OCCN3CCCCC3)cc2)cc1`, the GI50 in assay [1] was 7.27 µM; in [7], 2.27 µM; in assay [9], 2.14 µM; in assay [8], 2.14 µM; in assay [2], 2.35 µM; in [4] it was 1.64 µM. In addition, the GI50 was 2.21 µM in assay [5] and 3.95 µM in assay [6]. In addition, the TGI was 23.2 µM in assay [1]; 5.47 µM in [7]; 4.82 µM in assay [9]; 5.13 µM in [8]; 5.91 µM in [2]; 3.12 µM in assay [4]. Also, the TGI in assay [5] stood at 6.01 µM; in assay [6], 15.2 µM.
As to `O=C(O)c1nn(-c2ccc(Cl)cc2)c2c1C(=O)c1ccccc1C2=O`, the TGI in assay [1] was > 100 µM; in assay [7], > 100 µM; in assay [9], > 100 µM; in assay [8] it was > 100 µM; in [2], > 100 µM; in assay [4], 67.4 µM. Also, the TGI in [5] and in assay [6] was > 100 µM throughout.
As to `Cn1cc(-c2ncnc3ccc(-c4cnc(Cl)c(NS(C)(=O)=O)c4)cc23)c2ccccc21`, the GI50 is 0.382 µM in [1]; 0.298 µM in [7]; 0.14 µM in [9]; 0.419 µM in [8]; 1.46 µM in [2]; 0.656 µM in assay [4]. Also, the GI50 in assay [5] was 0.856 µM; in assay [6] it was 1.67 µM. For the same compound, the TGI in assay [1] is > 100 µM; in assay [7], 3.82 µM; in [9] it was 1.64 µM; in [8], 4.17 µM; in [2], 19.2 µM; in assay [4], 4.3 µM. For the same compound, the figures for the TGI in [5] and in assay [6] were > 100 µM and 23.4 µM, respectively.
Regarding `COc1ccc(-c2c(NC(=O)Nc3ccc(Cl)c(C(F)(F)F)c3)cnn2-c2ccc(S(N)(=O)=O)cc2)cc1`, the GI50 in [1] is 3.54 µM; in assay [7], 2.72 µM; in assay [9], 3.41 µM; in [8], 3.14 µM; in assay [2] it was 3.04 µM; in assay [4], 3.06 µM. The figures for the GI50 in assay [5] and in assay [6] were 3.58 µM and 3.85 µM, respectively. Moreover, the TGI in assay [1] worked out at 14.4 µM; in assay [7], 10.9 µM; in [9], 16.9 µM; in assay [8] it was 13.5 µM; in assay [2], 11.6 µM; in assay [4], 9.9 µM. The TGI was 13.1 µM in assay [5] and 14.7 µM in assay [6].
Take `CC(=O)N(N=O)c1ccc(N(N=O)C(C)=O)cc1`: the TGI in assay [1], in [7], in [8], in assay [3], in [4] and in [5] was > 100 µM each time. The TGI in assay [6] is > 100 µM.

Source of the values: PubChem BioAssay (NCI).
